Laboratory results taken from patent US20130178475A1, “sGC STIMULATORS” (IRONWOOD PHARMACEUTICALS, INC., priority 2010, published 2013).

What was measured:
[1] = target: T1, soluble guanylate cyclase (sGC) (Homo sapiens, UniProt Q02108+Q02153); assay: sGC-HEK-cGMP assay; assay type: cell-based; conditions: HEK293 cells, 10 min incubation, intracellular cGMP by LC/MS; for Increase in cGMP Concentration Tested at 10 μM in HEK Assay: test compound 10 μM; for Increase in cGMP Concentration Tested at 30 μM in HEK Assay: test compound 30 μM
T1 construct: endogenously expressing soluble guanylate cyclase (sGC); endogenous in cells; host or cells: HEK293
T1 sequence (Q02153 1-619): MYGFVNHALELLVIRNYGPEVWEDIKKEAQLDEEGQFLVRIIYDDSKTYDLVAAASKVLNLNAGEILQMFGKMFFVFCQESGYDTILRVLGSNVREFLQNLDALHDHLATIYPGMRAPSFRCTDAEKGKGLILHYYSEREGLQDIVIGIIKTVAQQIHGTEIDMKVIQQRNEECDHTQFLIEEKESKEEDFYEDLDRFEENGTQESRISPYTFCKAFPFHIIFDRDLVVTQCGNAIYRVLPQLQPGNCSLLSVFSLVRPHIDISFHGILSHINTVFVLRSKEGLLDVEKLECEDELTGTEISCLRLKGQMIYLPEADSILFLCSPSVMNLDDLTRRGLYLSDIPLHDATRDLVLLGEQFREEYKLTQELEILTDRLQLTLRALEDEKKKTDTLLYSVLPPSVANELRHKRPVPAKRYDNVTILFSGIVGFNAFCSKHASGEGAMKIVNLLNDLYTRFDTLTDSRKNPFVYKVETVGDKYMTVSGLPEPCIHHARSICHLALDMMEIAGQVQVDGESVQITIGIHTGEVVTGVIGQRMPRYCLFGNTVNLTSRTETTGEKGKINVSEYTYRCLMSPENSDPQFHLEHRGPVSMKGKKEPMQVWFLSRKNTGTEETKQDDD
T1 sequence (Q02108 1-690): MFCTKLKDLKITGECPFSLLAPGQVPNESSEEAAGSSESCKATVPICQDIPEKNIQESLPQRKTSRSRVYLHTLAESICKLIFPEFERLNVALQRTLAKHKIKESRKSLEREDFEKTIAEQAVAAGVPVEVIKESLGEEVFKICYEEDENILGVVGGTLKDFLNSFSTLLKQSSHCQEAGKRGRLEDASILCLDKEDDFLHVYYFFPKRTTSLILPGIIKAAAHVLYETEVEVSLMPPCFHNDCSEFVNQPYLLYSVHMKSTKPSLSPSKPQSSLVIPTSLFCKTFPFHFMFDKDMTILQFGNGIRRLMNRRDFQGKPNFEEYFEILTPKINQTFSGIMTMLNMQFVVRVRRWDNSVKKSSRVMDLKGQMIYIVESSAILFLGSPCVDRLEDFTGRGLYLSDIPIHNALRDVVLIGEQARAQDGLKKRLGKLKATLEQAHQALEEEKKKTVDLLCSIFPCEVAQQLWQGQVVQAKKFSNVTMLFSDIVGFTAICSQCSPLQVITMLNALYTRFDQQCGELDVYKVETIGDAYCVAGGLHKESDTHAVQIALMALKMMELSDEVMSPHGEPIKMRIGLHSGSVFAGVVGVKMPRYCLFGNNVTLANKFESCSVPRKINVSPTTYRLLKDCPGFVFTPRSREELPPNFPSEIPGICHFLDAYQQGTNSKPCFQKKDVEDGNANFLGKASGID
Protocol: Human embryonic kidney cells (HEK293), endogenously expressing soluble guanylate cyclase (sGC), were used to evaluate the activity of test compounds. Compounds stimulating the sGC receptor should cause an increase in the intracellular concentration of cGMP. […] Cells were then incubated for 15 minutes at 37° C. with 0.5 mM 3-isobutyl-1-methylxanthine (2004). Test article was then added to the assay mixture (2 μL) and incubated at 37° C. for 10 minutes. After the 10 minute incubation, the assay mixture was aspirated and 0.1M HCl (2004) was added to the cells. The plate was incubated at 4° C. for 30 minutes in the 0.1M HCl to stop the reaction and lyse the cells. The plates were then centrifuged at 1,200 g for 5 minutes at room temperature. Supernatants were collected and transferred to a new flat bottom 96 well plate for analysis. Vehicle controls were carried out using DMSO (1%). A known sGC stimulator, BAY 41-2272, was used as the positive control.
Samples were diluted with an equal volume of 1 M Ammonium Acetate (pH 7) to neutralize samples for better chromatography. A 2×cGMP standard curve was prepared in 0.1 M HCl and then diluted with an equal volume of 1 M Ammonium Acetate, with the following final concentrations in nM: 1024, 512, 256, 128, 64, 32, 16, 8, 4, 2, 1.
cGMP concentrations were determined from each sample using the LC/MS conditions (Table 2 below) and calculated standard curve. EC50 values were calculated from concentration-response curves generated with GraphPad Prism Software.

thoracic aortic rings = assay: Thoracic aortic rings assay; conditions: relaxation of male Sprague-Dawley rat aortic rings contracted with 100 ng/mL phenylephrine; read-out: EC50, thoracic aortic ring assay activity
Protocol: Thoracic aortic rings were dissected from anesthetized (isoflurane) male Sprague-Dawley rats weighing 275-299 g. Tissues were immediately transferred to ice-cold Krebs-Henseleit solution, which had been aerated with 95% O2 and 5% CO2 for 30 minutes. Following removal of connective tissue, aortic sections were cut into 4 rings (˜2 mm each) and suspended on 2 L-shaped hooks, with one hook fixed at the bottom of the tissue bath (Schuler Organ Bath, Harvard Apparatus) and the other connected to a force transducer (F30 Force Transducer, Harvard Apparatus). Baths contained Krebs Henseleit solution (10 mL) heated to 37° C. and aerated with 95% O2 and 5% CO2. Rings were brought to an initial tension of 0.3-0.5 g and gradually raised to a resting tension of 1.0 g over 60 minutes. Rings were rinsed with Krebs Henseleit solution (heated to 37° C. and aerated with 95% O2 and 5% CO2) at 15 minute intervals until a stable baseline was obtained. Rings were considered to be stable after a resting tension of 1.0 g was maintained (for approximately 10 minutes) without need for adjustment. Rings were then contracted with 100 ng/mL phenylephrine by adding 100 uL of a […] phenylephrine stock solution. Tissues achieving a stable contraction were then treated in a cumulative, dose dependent manner with test compounds prepared in dimethylsulfoxide (DMSO). In some cases, tissues were rinsed three times over a 5 minute period with Krebs-Heinseleit's solution (heated to 37° C. and aerated with 95% O2 and 5% CO2), allowed to stabilize at baseline, and then used for characterization of other test articles or DMSO effects. All data were collected using the HSE-ACAD software provided by Harvard Apparatus. Percent relaxation effects were calculated in Microsoft Excel using the recorded tension value of 100 ng/mL phenylephrine treatment as 0% inhibition and treatment with 100 μM 3-isobutyl-1-methylxanthine as 100% inhibition. EC50 values were calculated from concentration-response curves generated with GraphPad Prism Software.

| EC50 (thoracic aortic rings) | SMILES | Increase in cGMP Concentration Tested at 10 μM in HEK Assay [1] | Increase in cGMP Concentration Tested at 30 μM in HEK Assay [1] |
| --- | --- | --- | --- |
| 1300 nM | Fc1ccccc1Cn1nc(-c2ncccn2)c2c1CCCC2 [Compound I-1] | D (D represents an increase ranging from 20 fold to less than 50 fold) | D (D represents an increase ranging from 20 fold to less than 50 fold) |
| 1200 nM | Nc1ccnc(-c2nn(Cc3ccccc3F)c3c2CCC3)n1 [Compound I-3] | D (D represents an increase ranging from 20 fold to less than 50 fold) | E (E represents an increase ranging from 50 fold to less than 100 fold) |
| 2000 nM | Nc1ccnc(-c2nn(Cc3ccccc3F)c3c2CCCC3)n1 [Compound I-22] | D (D represents an increase ranging from 20 fold to less than 50 fold) | E (E represents an increase ranging from 50 fold to less than 100 fold) |
| 1200 nM | COC(=O)N(C)c1c(N)nc(-c2nn(Cc3ccccc3F)c3c2CCC3)nc1N [Compound I-37] | C (C represents an increase ranging from 10 fold to less than 20 fold) | B (B represents an increase ranging from 5 fold to less than 10 fold) |
|  | COc1ccccc1C(=O)N1CCc2c(c(-c3ncccn3)nn2Cc2ccccc2F)C1 [Compound I-57] | B (B represents an increase ranging from 5 fold to less than 10 fold) | C (C represents an increase ranging from 10 fold to less than 20 fold) |
|  | COc1cccc(C(=O)N2CCc3c(c(-c4ncccn4)nn3Cc3ccccc3F)C2)c1 [Compound I-58] | A (A represents no increase or an increase ranging from more than 0 fold to less than 5 fold) |  |
| 340 to 950 nM | Nc1nc(-c2nn(Cc3ccccc3F)c3ncccc23)ncc1C1CC1 [Reference Cpd., BAY 41-2272, reference compound] |  |  |
